How the values were obtained:
[1] = test system: yellow nutsedge; test: Test C preemergence; format: in vivo, Cyperus esculentus
Text: (§1) Seeds of plant species selected from blackgrass (Alopecurus myosuroides), Italian ryegrass (Lolium multiflorum), wheat, winter (winter wheat, Triticum aestivum), galium (catchweed bedstraw, Galium aparine), corn (Zea mays), large (Lg) crabgrass (Digitaria sanguinalis), giant foxtail (Setaria faberii), johnsongrass (Sorghum halepense), lambsquarters (Chenopodium album), morningglory (Ipomoea coccinea), yellow nutsedge (Cyperus esculentus), pigweed (Amaranthus retroflexus), ragweed (common ragweed, Ambrosia elatior), soybean (Glycine max), barnyardgrass (Echinochloa crus-galli), oilseed rape (Brassica napus), waterhemp (common waterhemp, Amaranthus rudis), kochia (Kochia scoparia), wild oat (Avena fatua), surinam grass (Brachiaria decumbens), foxtail, green (green foxtail, Setaria viridis), goosegrass (Eleusine indica), bromegrass, downy (downy bromegrass, Bromus tectorum), nightshade (eastern black nightshade, Solanum ptycanthum), cocklebur (common cocklebur, Xanthium strumarium), cupgrass, woolly (woolly cupgrass, Eriochloa villosa), bermudagrass (Cynodon dactylon), sunflower, (common oilseed sunflower, Helianthus annuus), Russian thistle (Salsola kali), and velvetleaf (Abutilon theophrasti) were planted into a blend of loam soil and sand and treated preemergence with test chemicals formulated in a non-phytotoxic solvent mixture which included a surfactant.
(§2) At the same time, plants selected from these crop and weed species and also barley, winter (winter barley, Hordeum vulgare), windgrass (Apera spica-venti), chickweed (common chickweed, Stellaria media), deadnettle (henbit deadnettle, Lamium amplexicaule), and canarygrass (littleseed canarygrass, Phalaris minor) were planted in pots containing Redi-Earth® planting medium (Scotts Company, 14111 Scottslawn Road, Marysville, Ohio 43041) comprising spaghnum peat moss, vermiculite, wetting agent and starter nutrients and treated with postemergence applications of test chemicals formulated in the same manner. Plants ranged in height from 2 to 18 cm (1- to 4-leaf stage) for postemergence treatments. Treated plants and controls were maintained in a greenhouse for 13 to 15 days, after which time all species were compared to controls and visually evaluated. Plant response ratings, summarized in Table C, are based on a scale of 0 to 100 where 0 is no effect and 100 is complete control. A dash (-) response means no test result.

[2] = test system: pigweed; test: Test C preemergence; format: in vivo, Amaranthus retroflexus
Text: as §1, §2

[3] = test system: velvetleaf; test: Test A postemergence; format: in vivo, Abutilon theophrasti; conditions: 0 to 100 scale where 0 is no effect and 100 is complete control; for Plant response rating, Velvetleaf: 500 g ai/ha
In short: (§3)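 Visual 0–100 rating (100 = complete control) taken about 10 d post-treatment relative to untreated checks. Preemergence: directed soil spray on sown loam/sand pots. Postemergence: seedlings 2–10 cm, 1–2 leaf. Non-phytotoxic solvent formulation with surfactant.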

[4] = test system: barnyardgrass; test: Test C preemergence; format: in vivo, Echinochloa crus-galli
Text: as §1, §2

[5] = test system: pigweed; test: Test A preemergence; format: in vivo, Amaranthus retroflexus
In short: as §3

[6] = test system: rice; test: Test B flooded paddy test; format: in vivo, Oryza sativa; conditions: Flood, 250 g ai/ha, 0 to 100 scale where 0 is no effect and 100 is complete control
In short: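 Visual ratings on a 0 to 100 scale, where 100 means complete control, compared treated plants with controls after 13 to 15 days in a greenhouse. Treatment went into paddy water 3 cm deep over the soil, applied to plants at the 2-leaf stage.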

[7] = test system: giant foxtail; test: Test A preemergence; format: in vivo, Setaria faberii
In short: as §3

[8] = test system: giant foxtail; test: Test C preemergence; format: in vivo, Setaria faberii
Text: as §1, §2

[9] = 16 g ai/ha, preemergence, scale 0 to 100 (0 no effect, 100 complete control)
[10] = 62 g ai/ha, preemergence, scale 0 (no effect) to 100 (complete control)
[11] = 125 g ai/ha, preemergence, scale 0 (no effect) to 100 (complete control)
[12] = Preemergence, 31 g ai/ha, scale 0 to 100, 0 no effect, 100 complete control
[13] = 125 g ai/ha, 0 to 100 scale where 0 is no effect and 100 is complete control
[14] = 500 g ai/ha, 0 to 100 scale, 0 no effect, 100 complete control, approx. 10 days
[15] = 500 g ai/ha, 0 to 100 scale where 0 is no effect and 100 is complete control
[16] = Preemergence, 62 g ai/ha, scale 0 to 100, 0 no effect, 100 complete control
[17] = 31 g ai/ha, 0 to 100 scale where 0 is no effect and 100 is complete control, visual, approximately 10 days

| Compound | Nutsedge, Yellow plant response rating [1, 9] | Nutsedge, Yellow plant response rating [1, 10] | Nutsedge, Yellow plant response rating [1, 11] | Pigweed plant response rating [2, 9] | Pigweed plant response rating [2, 10] | Pigweed plant response rating [2, 11] | Plant response rating, Velvetleaf [3] | Barnyardgrass plant response rating [4, 9] | Barnyardgrass plant response rating [4, 10] | Barnyardgrass plant response rating [4, 11] | Plant response rating, Barnyardgrass [4, 12] | Plant response rating, Rice [6] | Plant response rating, Foxtail, Giant [7, 13] | Foxtail, Giant plant response rating [8, 9] | Foxtail, Giant plant response rating [8, 10] | Foxtail, Giant plant response rating [8, 11] | Plant response rating, Foxtail, Giant [8, 12] | Pigweed plant response rating (0 to 100 scale) ([5]; 125 g ai/ha) | Foxtail, Giant plant response rating (0 to 100 scale) ([7]; 125 g ai/ha) | also measured |
| --- | --- | --- | --- | --- | --- | --- | --- | --- | --- | --- | --- | --- | --- | --- | --- | --- | --- | --- | --- | --- |
| Fc1cnc(Oc2cccc(C(F)F)c2-n2cc(Br)cn2)nc1 [Compound 112] | 0 | 15 | 40 | 100 | 100 | 100 | 100 | 0 | 30 | 90 | 5 | 0 | 100 | 15 | 100 | 100 | 85 | – | – | Plant response rating, Nutsedge, Yellow [1, 12]: 5; Plant response rating, Pigweed [2, 12]: 100; Plant response rating, Pigweed [5, 13]: 100; Pigweed plant response rating [5, 14]: 100; Foxtail, Giant plant response rating [7, 14]: 100 |
| Fc1cccc(Oc2ncc(Cl)cn2)c1-n1cc(I)cn1 [Compound 179] | 0 | 10 | 15 | 100 | 100 | 100 | 100 | 5 | 90 | 100 | 10 | 0 | 100 | 40 | 100 | 100 | 85 | 100 | – | Velvetleaf plant response rating ([3]; 125 g ai/ha): 100; Pigweed plant response rating [5, 15]: 100; Foxtail, Giant plant response rating [7, 15]: 100 |
| N#Cc1cccc(Oc2ncc(Cl)cn2)c1-n1cnc(C(F)(F)F)c1 [Compound 252, 3-[(5-chloro-2-pyrimidinyl)oxy]-2-[4-(trifluoromethyl)-1H-imidazol-1-yl]benzonitrile] | – | – | – | – | – | – | – | – | – | – | – | – | – | – | – | – | – | 100 | 100 | pest or weed control at 16 g/ha ([1]; Cyperus, pre-emergence, 16 g ai/ha, preemergence, scale 0 to 100 (0 no effect, 100 complete control), read-out: Nutsedge, Yellow plant response rating): 0%; pest or weed control at 125 g/ha ([1]; Cyperus, pre-emergence, 125 g ai/ha, preemergence, scale 0 (no effect) to 100 (complete control), read-out: Nutsedge, Yellow plant response rating): 60%; pest or weed control at 62 g/ha ([1]; Cyperus, pre-emergence, Preemergence, 62 g ai/ha, scale 0 to 100, 0 no effect, 100 complete control, read-out: Plant response rating, Nutsedge, Yellow): 40%; pest or weed control at 16 g/ha ([2]; Amaranthus retroflexus, pre-emergence, 16 g ai/ha, preemergence, scale 0 to 100 (0 no effect, 100 complete control), read-out: Pigweed plant response rating): 98%; pest or weed control at 125 g/ha ([2]; Amaranthus retroflexus, pre-emergence, 125 g ai/ha, preemergence, scale 0 (no effect) to 100 (complete control), read-out: Pigweed plant response rating): 100%; pest or weed control at 62 g/ha ([2]; Amaranthus retroflexus, pre-emergence, Preemergence, 62 g ai/ha, scale 0 to 100, 0 no effect, 100 complete control, read-out: Plant response rating, Pigweed): 100%; pest or weed control at 16 g/ha ([4]; Echinochloa crus-galli, pre-emergence, 16 g ai/ha, preemergence, scale 0 to 100 (0 no effect, 100 complete control), read-out: Barnyardgrass plant response rating): 10%; pest or weed control at 125 g/ha ([4]; Echinochloa crus-galli, pre-emergence, 125 g ai/ha, preemergence, scale 0 (no effect) to 100 (complete control), read-out: Barnyardgrass plant response rating): 100%; pest or weed control at 62 g/ha ([4]; Echinochloa crus-galli, pre-emergence, Preemergence, 62 g ai/ha, scale 0 to 100, 0 no effect, 100 complete control, read-out: Plant response rating, Barnyardgrass): 100%; pest or weed control at 31 g/ha ([5]; Amaranthus retroflexus, pre-emergence, 240 h, 31 g ai/ha, 0 to 100 scale where 0 is no effect and 100 is complete control, visual, approximately 10 days, read-out: Plant response rating, Pigweed): 100%; pest or weed control at 500 g/ha ([5]; Amaranthus retroflexus, pre-emergence, 240 h, 500 g ai/ha, 0 to 100 scale where 0 is no effect and 100 is complete control, read-out: Pigweed plant response rating): 100%; plant injury at 250 g/ha ([6]; Oryza sativa, read-out: Plant response rating, Rice): 0%; pest or weed control at 31 g/ha ([7]; Setaria faberi, pre-emergence, 240 h, 31 g ai/ha, 0 to 100 scale where 0 is no effect and 100 is complete control, visual, approximately 10 days, read-out: Plant response rating, Foxtail, Giant): 70%; pest or weed control at 500 g/ha ([7]; Setaria faberi, pre-emergence, 240 h, 500 g ai/ha, 0 to 100 scale where 0 is no effect and 100 is complete control, read-out: Foxtail, Giant plant response rating): 100%; pest or weed control at 16 g/ha ([8]; Setaria faberi, pre-emergence, 16 g ai/ha, preemergence, scale 0 to 100 (0 no effect, 100 complete control), read-out: Foxtail, Giant plant response rating): 35%; pest or weed control at 125 g/ha ([8]; Setaria faberi, pre-emergence, 125 g ai/ha, preemergence, scale 0 (no effect) to 100 (complete control), read-out: Foxtail, Giant plant response rating): 100%; pest or weed control at 62 g/ha ([8]; Setaria faberi, pre-emergence, Preemergence, 62 g ai/ha, scale 0 to 100, 0 no effect, 100 complete control, read-out: Plant response rating, Foxtail, Giant): 100% |
| Fc1cccc(Oc2ncc(Cl)cn2)c1-n1cc(OCC(F)(F)F)cn1 [Compound 270] | 0 | – | 45 | 100 | – | 100 | – | 0 | – | 100 | – | 0 | – | 5 | – | 100 | – | 100 | 100 | Plant response rating, Nutsedge, Yellow [1, 16]: 15; Plant response rating, Pigweed [2, 16]: 100; Plant response rating, Barnyardgrass [4, 16]: 90; Plant response rating, Pigweed [5, 17]: 100; Plant response rating, Foxtail, Giant [7, 17]: 40; Plant response rating, Foxtail, Giant [8, 16]: 100 |

Reference: patent US9695155B2, “Herbicidal substituted pyrimidinyloxy benzene compounds” (E. I. DU PONT DE NEMOURS AND COMPANY, priority 2013, dated 2017)
